The text below walks through data of US7279476B2, “Pyrazole-derived kinase inhibitors and uses thereof” (Vertex Pharmaceuticals Incorporated, priority 2001, dated 2007).

The test system of assay [1] is Colon cancer cells (HT-29 cell line). Put plainly: ERK inhibition cell proliferation assay (3H-thymidine uptake). Conditions: Homo sapiens, HT-29 cells, 3 days incubation. Type of assay: cell-based. How it is done:
Compounds may be assayed for the inhibition of ERK2 by a cell proliferation assay. In this assay, a complete media is prepared by adding 10% fetal bovine serum and penicillin/streptomycin solution to RPMI 1640 medium (JRH Biosciences). Colon cancer cells (HT-29 cell line) are added to each of 84 wells of a 96 well plate at a seeding density of 10,000 cells/well/150 μL. The cells are allowed to attach to the plate by incubating at 37° C. for 2 hours. A solution of test compound is prepared in complete media by serial dilution to obtain the following concentrations: 20 μM, 6.7 μM, 2.2 μM, 0.74 μM, 0.25 μM, and 0.08 μM. The test compound solution (50 μL) is added to each of 72 cell-containing wells. To the 12 remaining cell-containing wells, only complete media (200 μL) is added to form a control group in order to measure maximal proliferation. To the remaining 12 empty wells, complete media is added to form a vehicle control group in order to measure background. The plates are incubated at 37° C. for 3 days. A stock solution of ^3H-thymidine (1 mCi/mL, New England Nuclear, Boston, Mass.) is diluted to 20 μCi/mL in RPMI medium then 20 μL of this solution is added to each well. The plates are further incubated at 37° C. for 8 hours then harvested and analyzed for ^3H-thymidine uptake using a liquid scintillation counter.

For a further assay, the target named is activated ERK2 (Homo sapiens, UniProt P28482). Kind of assay: ERK2 inhibition spectrophotometric coupled-enzyme assay. The settings on record: 10 nM activated ERK2, 65 μM ATP, 30° C., pH 7.5; read-out: ERK2 Inhibitory Activity (Ki class). Type of assay: biochemical. How it is done: Compounds are assayed for the inhibition of ERK2 by a spectrophotometric coupled-enzyme assay (Fox et al (1998) Protein Sci 7, 2249). In this assay, a fixed concentration of activated ERK2 (10 nM) is incubated with various concentrations of the compound in DMSO (2.5%) for 10 min. at 30° C. in 0.1 M HEPES buffer, pH 7.5, containing 10 mM MgCl2, 2.5 mM phosphoenolpyruvate, 200 μM NADH, 150 μg/mL pyruvate kinase, 50 μg/mL lactate dehydrogenase, and 200 μM erktide peptide. The reaction is initiated by the addition of 65 μM ATP. The rate of decrease of absorbance at 340 nm is monitored, which indicates the extent of uninhibited enzyme present in the assay. The IC50 is evaluated from the rate data as a function of inhibitor concentration.
Chain of activated ERK2 (P28482 whole entry): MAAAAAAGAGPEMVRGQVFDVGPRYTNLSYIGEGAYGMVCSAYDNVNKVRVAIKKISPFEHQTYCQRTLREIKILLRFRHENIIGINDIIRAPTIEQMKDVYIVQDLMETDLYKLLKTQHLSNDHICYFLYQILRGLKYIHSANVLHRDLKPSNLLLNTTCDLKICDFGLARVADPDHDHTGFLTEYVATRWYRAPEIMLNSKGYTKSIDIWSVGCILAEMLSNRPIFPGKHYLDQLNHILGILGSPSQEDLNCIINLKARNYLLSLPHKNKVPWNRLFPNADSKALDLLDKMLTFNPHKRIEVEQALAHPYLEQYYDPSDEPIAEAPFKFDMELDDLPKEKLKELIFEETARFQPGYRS
The compound numbers correspond to the compound numbers in Tables 1 and 2.

Another assay concerns AKT. Kind of assay: AKT inhibition standard coupled enzyme assay. It is filed as biochemical. Conditions: screened at 30 μM compound, 45 nM AKT, 170 μM ATP; compounds with greater than 50% inhibition titrated. How it is done:
Compounds were screened for their ability to inhibit AKT using a standard coupled enzyme assay (Fox et al., Protein Sci., (1998) 7, 2249). Assays were carried out in a mixture of 100 mM HEPES 7.5, 10 mM MgCl2, 25 mM NaCl, 1 mM DTT and 1.5% DMSO. Final substrate concentrations in the assay were 170 μM ATP (Sigma Chemicals) and 200 μM peptide (RPRAATF, American Peptide, Sunnyvale, Calif.). Assays were carried out at 30° C. and 45 nM AKT. Final concentrations of the components of the coupled enzyme system were 2.5 mM phosphoenolpyruvate, 300 μM NADH, 30 μg/ML pyruvate kinase and 10 μg/ml lactate dehydrogenase.
An assay stock buffer solution was prepared containing all of the reagents listed above, with the exception of AKT, DTT, and the test compound of interest. 56 μl of the stock solution was placed in a 384 well plate followed by addition of 1 μl of 2 mM DMSO stock containing the test compound (final compound concentration 30 μM). The plate was preincubated for about 10 minutes at 30° C. and the reaction initiated by addition of 10 μl of enzyme (final concentration 45 nM) and 1 mM DTT. Rates of reaction were obtained using a BioRad Ultramark plate reader (Hercules, Calif.) over a 5 minute read time at 30° C.

A word on the IC50: it is the concentration that inhibits the measured activity by half. Read a low IC50 as greater potency. As a reminder, the Ki is a dissociation constant, usually derived from enzyme kinetics or from competition with a known ligand. `O=C(N[C@H](CO)c1ccccc1)c1cc(-c2[nH]ncc2-c2ccc(C(=O)N3CCOCC3)c(Cl)c2)c[nH]1` [II-1]: the IC50 in assay [1] is less than 10000 nM. In addition, the Ki at activated ERK2 was less than 1000 nM.
On to `O=C(NCc1ccc(-c2cn[nH]c2-c2c[nH]c(C(=O)N[C@H](CO)c3ccc(F)c(Cl)c3)c2)cc1Cl)O[C@H]1CCOC1` [II-7], for which the Ki at activated ERK2 was less than 1000 nM.
For the molecule `O=C(NCc1ccccc1)c1cc(-c2[nH]ncc2-c2cccc(CN3CCOCC3)c2)c[nH]1` [II-10], the Ki at activated ERK2 was greater than 5000 nM.
The same measure, in the same setting: next, `O=C(CCCCCNc1ccc([N+](=O)[O-])c2nonc12)NCc1ccc(-c2cn[nH]c2-c2c[nH]c(C(=O)N[C@H](CO)c3ccc(F)c(Cl)c3)c2)cc1Cl` [II-5]: less than 1000 nM.
On the same count and under the same terms, next, `CC(=O)N1CCC[C@@H]1C(=O)NCc1ccc(-c2cn[nH]c2-c2c[nH]c(C(=O)NC(CO)c3ccc(F)c(Cl)c3)c2)cc1Cl` (some centres unmarked) [II-4]: less than 1000 nM; `CC(=O)N1C[C@H](O)C[C@H]1C(=O)NCc1ccc(-c2c[nH]nc2-c2c[nH]c(C(=O)N[C@H](CO)c3ccc(F)c(Cl)c3)c2)cc1Cl` (stereo in doubt) [II-2, 4-[4-(4-{[(1-Acetyl-4-hydroxy-pyrrolidine-2-carbonyl)-amino]-methyl}-3-chloro-phenyl)-1H-pyrazol-3-yl]-1H-pyrrole-2-carboxylic acid [1-(3-chloro-4-fluoro-phenyl)-2-hydroxy-ethyl]-amide]: less than 1000 nM.
With `O=C(N[C@H](CO)c1ccc(F)c(Cl)c1)c1cc(-c2n[nH]cc2-c2ccc(CN3CCOCC3)c(Cl)c2)c[nH]1` [II-6, 4-[4-(3-Chloro-4-morpholin-4-ylmethyl-phenyl)-1H-pyrazol-3-yl]-1H-pyrrole-2-carboxylic acid [1-(3-chloro-4-fluoro-phenyl)-2-hydroxy-ethyl]-amide], in the assay with AKT, the “inhibit AKT” value was “inhibit AKT”. This molecule also displayed an IC50 in assay [1] of less than 10000 nM. The Ki on activated ERK2 was less than 1000 nM.
With `O=C(N[C@H](CO)c1ccc(F)c(Cl)c1)c1cc(-c2n[nH]cc2-c2ccc(CN(Cc3cc[n+]([O-])cc3)Cc3cc[n+](O)cc3)c(Cl)c2)c[nH]1` [II-9, 4-[4-(4-{[Bis-(1-oxy-pyridin-4-ylmethyl)-amino]-methyl}-3-chloro-phenyl)-1H-pyrazol-3-yl]-1H-pyrrole-2-carboxylic acid [1-(3-chloro-4-fluoro-phenyl)-2-hydroxy-ethyl]-amide], on activated ERK2, the Ki is less than 1000 nM.
In the case of `CC(=O)N1CCC[C@H]1C(=O)NCc1ccc(-c2cn[nH]c2-c2c[nH]c(C(=O)NC(CO)c3ccc(F)c(Cl)c3)c2)cc1Cl` (some centres unmarked) [II-3], the Ki at activated ERK2 was less than 1000 nM.
For `O=C(N[C@H](CO)c1ccc(F)c(Cl)c1)c1cc(-c2n[nH]cc2-c2ccc(CNCc3cc[n+]([O-])cc3)c(Cl)c2)c[nH]1` [II-8], the “inhibit AKT” value in the assay with AKT is “inhibit AKT”. Further, at activated ERK2, the Ki is less than 1000 nM.
